{"source": "patent US9682995B2", "about": "“Amino-substituted isothiazoles” (BAYER PHARMA AKTIENGESELLSCHAFT, priority 2013, dated 2017)", "test_in_all_cases": "Kinase Profiling (KINOMEscan)", "assay_type_in_all_cases": "binding", "key": {"[1]": {"target": "456 kinases (of these 395 non-mutant kinases) (Homo sapiens, UniProt Q13131)", "conditions": "AMPK-alpha1; 10 μM"}, "[2]": {"target": "456 kinases (of these 395 non-mutant kinases) (Homo sapiens, UniProt P42336, M1043I)", "conditions": "PIK3CA(M1043I); 10 μM"}, "[3]": {"target": "456 kinases (of these 395 non-mutant kinases) (Homo sapiens, UniProt P54762)", "conditions": "EPHB1; 10 μM"}, "[4]": {"target": "456 kinases (of these 395 non-mutant kinases) (Homo sapiens, UniProt Q13188)", "conditions": "MST2; 10 μM"}, "[5]": {"target": "456 kinases (of these 395 non-mutant kinases) (Homo sapiens, UniProt Q15208)", "conditions": "NDR1; 10 μM"}, "[6]": {"target": "456 kinases (of these 395 non-mutant kinases) (Homo sapiens, UniProt Q52WX2)", "conditions": "SBK1; 10 μM"}, "[7]": {"target": "456 kinases (of these 395 non-mutant kinases) (Homo sapiens, UniProt Q9NRH2)", "conditions": "SNRK; 10 μM"}, "[8]": {"target": "456 kinases (of these 395 non-mutant kinases) (Homo sapiens, UniProt P04626)", "sequence (P04626 23-1255 limits assumed, change not shown)": "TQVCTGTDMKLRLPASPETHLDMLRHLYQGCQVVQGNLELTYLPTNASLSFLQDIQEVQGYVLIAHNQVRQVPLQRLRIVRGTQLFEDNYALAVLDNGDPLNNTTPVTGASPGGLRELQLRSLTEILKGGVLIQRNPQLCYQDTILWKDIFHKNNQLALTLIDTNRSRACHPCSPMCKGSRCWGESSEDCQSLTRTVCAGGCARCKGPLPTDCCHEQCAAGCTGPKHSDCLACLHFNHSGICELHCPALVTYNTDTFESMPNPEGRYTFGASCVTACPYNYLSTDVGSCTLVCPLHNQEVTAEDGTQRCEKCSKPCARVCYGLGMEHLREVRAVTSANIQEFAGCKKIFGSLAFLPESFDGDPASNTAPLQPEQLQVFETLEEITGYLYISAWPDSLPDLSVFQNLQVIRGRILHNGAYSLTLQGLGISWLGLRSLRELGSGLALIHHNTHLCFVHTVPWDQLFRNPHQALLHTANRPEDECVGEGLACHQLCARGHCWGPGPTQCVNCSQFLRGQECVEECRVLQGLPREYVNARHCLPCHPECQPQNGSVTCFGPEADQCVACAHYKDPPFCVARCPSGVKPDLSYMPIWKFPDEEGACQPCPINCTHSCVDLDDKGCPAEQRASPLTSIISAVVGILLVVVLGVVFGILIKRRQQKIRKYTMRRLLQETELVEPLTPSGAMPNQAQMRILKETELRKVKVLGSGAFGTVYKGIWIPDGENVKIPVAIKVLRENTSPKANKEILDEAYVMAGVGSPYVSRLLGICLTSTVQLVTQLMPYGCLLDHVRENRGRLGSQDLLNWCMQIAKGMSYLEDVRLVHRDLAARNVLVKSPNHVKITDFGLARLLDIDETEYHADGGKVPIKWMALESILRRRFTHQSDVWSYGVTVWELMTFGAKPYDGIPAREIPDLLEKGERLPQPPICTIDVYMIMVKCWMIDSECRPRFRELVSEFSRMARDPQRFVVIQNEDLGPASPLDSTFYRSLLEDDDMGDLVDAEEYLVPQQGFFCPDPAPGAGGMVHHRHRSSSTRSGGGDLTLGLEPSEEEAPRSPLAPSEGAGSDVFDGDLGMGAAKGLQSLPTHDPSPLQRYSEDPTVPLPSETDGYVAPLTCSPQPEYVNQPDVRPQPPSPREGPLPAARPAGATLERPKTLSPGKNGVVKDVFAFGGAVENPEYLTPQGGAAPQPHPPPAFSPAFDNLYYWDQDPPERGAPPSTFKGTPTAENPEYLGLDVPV", "conditions": "ERBB2; 10 μM"}, "[9]": {"target": "456 kinases (of these 395 non-mutant kinases) (Homo sapiens, UniProt P16591)", "conditions": "FER; 10 μM"}, "[10]": {"target": "456 kinases (of these 395 non-mutant kinases) (Homo sapiens, UniProt Q86Z02)", "conditions": "HIPK1; 10 μM"}, "[11]": {"target": "456 kinases (of these 395 non-mutant kinases) (Homo sapiens, UniProt P31751)", "conditions": "AKT2; 10 μM"}, "[12]": {"target": "456 kinases (of these 395 non-mutant kinases) (Homo sapiens, UniProt Q9P0L2)", "conditions": "MARK1; 10 μM"}, "[13]": {"target": "456 kinases (of these 395 non-mutant kinases) (Homo sapiens, UniProt P28482)", "sequence (P28482 2-360 limits assumed, change not shown)": "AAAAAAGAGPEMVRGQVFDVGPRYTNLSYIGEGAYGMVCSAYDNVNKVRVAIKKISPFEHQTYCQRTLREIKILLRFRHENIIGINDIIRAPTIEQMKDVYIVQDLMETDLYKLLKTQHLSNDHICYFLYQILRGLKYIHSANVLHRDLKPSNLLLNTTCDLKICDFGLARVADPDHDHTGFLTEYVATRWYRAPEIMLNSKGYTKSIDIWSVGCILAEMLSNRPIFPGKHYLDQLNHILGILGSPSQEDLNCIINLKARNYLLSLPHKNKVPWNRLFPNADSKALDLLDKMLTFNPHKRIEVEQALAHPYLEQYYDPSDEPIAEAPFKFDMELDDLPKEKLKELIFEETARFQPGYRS", "conditions": "ERK2; 10 μM"}, "[14]": {"target": "456 kinases (of these 395 non-mutant kinases) (Homo sapiens, UniProt P57078)", "conditions": "RIPK4; 10 μM"}, "[15]": {"target": "456 kinases (of these 395 non-mutant kinases) (Homo sapiens, UniProt P49761)", "conditions": "CLK3; 10 μM"}, "[16]": {"target": "456 kinases (of these 395 non-mutant kinases) (Homo sapiens, UniProt Q92918)", "conditions": "HPK1; 10 μM"}, "[17]": {"target": "456 kinases (of these 395 non-mutant kinases) (Homo sapiens, UniProt Q32MK0)", "conditions": "MLCK; 10 μM"}, "[18]": {"target": "456 kinases (of these 395 non-mutant kinases) (Homo sapiens, UniProt Q06418)", "conditions": "TYRO3; 10 μM"}, "[19]": {"target": "456 kinases (of these 395 non-mutant kinases) (Homo sapiens, UniProt O43683)", "conditions": "BUB1; 10 μM"}, "[20]": {"target": "456 kinases (of these 395 non-mutant kinases) (Homo sapiens, UniProt Q5S007)", "conditions": "LRRK2; 10 μM"}, "[21]": {"target": "456 kinases (of these 395 non-mutant kinases) (Homo sapiens, UniProt O60285)", "conditions": "ARK5; 10 μM"}, "[22]": {"target": "456 kinases (of these 395 non-mutant kinases) (Homo sapiens, UniProt Q9NYL2)", "conditions": "ZAK; 10 μM"}, "[23]": {"target": "456 kinases (of these 395 non-mutant kinases) (Homo sapiens, UniProt Q9UEE5)", "conditions": "DRAK1; 10 μM"}, "[24]": {"target": "456 kinases (of these 395 non-mutant kinases) (Homo sapiens, UniProt Q07912)", "conditions": "TNK2; 10 μM"}, "[25]": {"target": "456 kinases (of these 395 non-mutant kinases) (Homo sapiens, UniProt Q9UF33)", "sequence (Q9UF33 23-1036 limits assumed, change not shown)": "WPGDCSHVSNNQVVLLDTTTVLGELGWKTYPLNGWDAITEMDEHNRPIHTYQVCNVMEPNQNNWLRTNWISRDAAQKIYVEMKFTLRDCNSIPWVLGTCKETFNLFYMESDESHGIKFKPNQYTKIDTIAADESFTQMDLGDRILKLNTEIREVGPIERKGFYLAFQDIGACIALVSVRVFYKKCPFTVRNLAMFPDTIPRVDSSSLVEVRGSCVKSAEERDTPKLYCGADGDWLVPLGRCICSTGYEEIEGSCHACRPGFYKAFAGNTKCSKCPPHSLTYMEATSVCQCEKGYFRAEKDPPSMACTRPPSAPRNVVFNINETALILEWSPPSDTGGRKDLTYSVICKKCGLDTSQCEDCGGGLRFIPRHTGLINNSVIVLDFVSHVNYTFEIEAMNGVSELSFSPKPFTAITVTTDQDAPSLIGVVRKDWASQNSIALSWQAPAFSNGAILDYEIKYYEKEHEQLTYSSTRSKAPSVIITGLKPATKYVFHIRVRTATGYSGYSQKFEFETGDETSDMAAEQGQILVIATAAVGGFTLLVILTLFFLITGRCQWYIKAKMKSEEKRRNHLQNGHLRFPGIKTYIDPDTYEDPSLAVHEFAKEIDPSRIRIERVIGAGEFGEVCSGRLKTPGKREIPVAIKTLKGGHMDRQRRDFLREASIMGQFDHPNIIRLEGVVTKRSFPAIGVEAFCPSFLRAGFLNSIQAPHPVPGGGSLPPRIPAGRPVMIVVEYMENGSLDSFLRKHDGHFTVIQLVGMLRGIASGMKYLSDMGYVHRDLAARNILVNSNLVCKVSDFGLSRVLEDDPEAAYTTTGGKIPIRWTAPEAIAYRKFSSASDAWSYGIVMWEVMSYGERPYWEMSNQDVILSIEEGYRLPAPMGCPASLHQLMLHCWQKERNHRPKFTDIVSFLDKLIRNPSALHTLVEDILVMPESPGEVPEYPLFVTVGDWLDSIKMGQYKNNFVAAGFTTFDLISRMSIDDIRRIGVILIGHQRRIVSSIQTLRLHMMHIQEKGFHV", "conditions": "EPHA6; 10 μM"}, "[26]": {"target": "456 kinases (of these 395 non-mutant kinases) (Homo sapiens, UniProt P00533, T790M)", "conditions": "EGFR(T790M); 10 μM"}, "[27]": {"target": "456 kinases (of these 395 non-mutant kinases) (Homo sapiens, UniProt P06213)", "conditions": "INSR; 10 μM"}, "[28]": {"target": "456 kinases (of these 395 non-mutant kinases) (Homo sapiens, UniProt Q9UM73, L1196M)", "sequence (Q9UM73 19-1620 L1196M limits assumed)": "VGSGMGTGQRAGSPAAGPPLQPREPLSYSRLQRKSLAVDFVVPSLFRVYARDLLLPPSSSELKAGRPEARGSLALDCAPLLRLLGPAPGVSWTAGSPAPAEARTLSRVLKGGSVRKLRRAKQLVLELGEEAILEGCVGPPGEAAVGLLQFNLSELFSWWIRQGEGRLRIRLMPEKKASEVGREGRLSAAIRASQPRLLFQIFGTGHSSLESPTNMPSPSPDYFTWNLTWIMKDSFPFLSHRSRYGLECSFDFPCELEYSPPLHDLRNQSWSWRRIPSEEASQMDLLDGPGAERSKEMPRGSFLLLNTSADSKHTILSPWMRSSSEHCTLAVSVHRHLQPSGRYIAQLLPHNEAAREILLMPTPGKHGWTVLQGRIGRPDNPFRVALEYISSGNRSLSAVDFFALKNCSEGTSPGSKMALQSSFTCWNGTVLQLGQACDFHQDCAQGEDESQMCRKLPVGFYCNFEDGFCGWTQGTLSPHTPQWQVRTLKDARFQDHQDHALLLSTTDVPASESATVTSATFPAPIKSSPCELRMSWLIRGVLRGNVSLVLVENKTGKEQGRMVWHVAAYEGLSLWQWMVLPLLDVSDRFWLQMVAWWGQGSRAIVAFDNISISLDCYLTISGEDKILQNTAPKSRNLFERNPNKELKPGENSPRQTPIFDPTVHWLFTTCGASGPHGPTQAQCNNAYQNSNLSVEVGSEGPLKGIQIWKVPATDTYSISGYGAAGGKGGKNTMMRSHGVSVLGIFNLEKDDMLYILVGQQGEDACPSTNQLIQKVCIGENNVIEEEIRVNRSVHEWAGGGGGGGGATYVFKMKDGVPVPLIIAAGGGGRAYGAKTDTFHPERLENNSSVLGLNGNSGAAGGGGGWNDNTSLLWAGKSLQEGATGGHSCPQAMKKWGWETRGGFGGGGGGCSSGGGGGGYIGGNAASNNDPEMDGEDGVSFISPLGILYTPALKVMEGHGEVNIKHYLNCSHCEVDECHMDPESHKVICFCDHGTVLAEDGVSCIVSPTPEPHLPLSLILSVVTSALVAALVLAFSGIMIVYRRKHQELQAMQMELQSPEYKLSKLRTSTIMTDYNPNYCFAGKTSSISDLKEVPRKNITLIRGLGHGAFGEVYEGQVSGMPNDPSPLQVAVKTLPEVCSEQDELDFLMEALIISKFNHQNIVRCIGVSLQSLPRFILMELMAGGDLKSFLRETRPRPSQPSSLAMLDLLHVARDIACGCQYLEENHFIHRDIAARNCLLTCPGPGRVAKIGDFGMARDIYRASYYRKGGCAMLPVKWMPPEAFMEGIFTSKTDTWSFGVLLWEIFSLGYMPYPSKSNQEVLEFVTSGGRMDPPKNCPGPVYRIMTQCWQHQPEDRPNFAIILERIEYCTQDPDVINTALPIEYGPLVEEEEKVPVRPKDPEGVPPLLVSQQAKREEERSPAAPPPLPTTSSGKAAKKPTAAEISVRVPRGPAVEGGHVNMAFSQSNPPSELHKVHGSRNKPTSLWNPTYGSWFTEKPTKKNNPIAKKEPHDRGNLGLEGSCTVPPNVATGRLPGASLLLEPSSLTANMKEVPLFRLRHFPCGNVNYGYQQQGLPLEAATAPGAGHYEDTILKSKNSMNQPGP", "conditions": "ALK(L1196M); 10 μM"}, "[29]": {"target": "456 kinases (of these 395 non-mutant kinases) (Homo sapiens, UniProt Q9UQM7)", "conditions": "CAMK2A; 10 μM"}, "[30]": {"target": "456 kinases (of these 395 non-mutant kinases) (Homo sapiens, UniProt P30530)", "conditions": "AXL; 10 μM"}, "[31]": {"target": "456 kinases (of these 395 non-mutant kinases) (Homo sapiens, UniProt P00519, F317L)", "conditions": "10 μM"}, "[32]": {"target": "456 kinases (of these 395 non-mutant kinases) (Homo sapiens, UniProt P19525)", "sequence (P19525 2-551 limits assumed, change not shown)": "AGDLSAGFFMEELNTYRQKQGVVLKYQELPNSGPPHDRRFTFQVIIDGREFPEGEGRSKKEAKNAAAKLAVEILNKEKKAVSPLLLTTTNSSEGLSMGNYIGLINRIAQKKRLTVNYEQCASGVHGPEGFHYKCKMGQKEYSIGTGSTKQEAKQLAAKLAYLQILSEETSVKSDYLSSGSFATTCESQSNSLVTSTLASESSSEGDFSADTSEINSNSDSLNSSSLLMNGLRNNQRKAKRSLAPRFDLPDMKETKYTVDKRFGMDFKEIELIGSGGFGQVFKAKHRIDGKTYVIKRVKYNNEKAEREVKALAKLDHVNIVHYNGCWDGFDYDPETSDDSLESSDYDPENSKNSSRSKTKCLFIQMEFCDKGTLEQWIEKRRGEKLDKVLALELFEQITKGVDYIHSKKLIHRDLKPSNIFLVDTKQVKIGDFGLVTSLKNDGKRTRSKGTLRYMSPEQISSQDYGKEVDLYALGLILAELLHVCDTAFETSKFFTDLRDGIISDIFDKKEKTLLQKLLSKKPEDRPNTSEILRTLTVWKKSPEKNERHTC", "conditions": "PRKR; 10 μM"}}}
{"smiles": "CCc1ccccc1NC(=O)c1c(C)nsc1Nc1cnc2cc(F)ccc2n1", "note": "[Example 20, N-(2-Ethylphenyl)-5-[(6-fluoroquinoxalin-2-yl)amino]-3-methyl-1,2-thiazole-4-carboxamide]", "values": [{"measurement": "% Ctrl @ 10 μM", "setting": "[1]", "result": 92, "unit": "% Ctrl"}, {"measurement": "% Ctrl @ 10 μM", "setting": "[2]", "result": 76, "unit": "% Ctrl"}, {"measurement": "% Ctrl @ 10 μM", "setting": "[3]", "result": 96, "unit": "% Ctrl"}, {"measurement": "% Ctrl @ 10 μM", "setting": "[4]", "result": 100, "unit": "% Ctrl"}, {"measurement": "% Ctrl @ 10 μM", "setting": "[5]", "result": 100, "unit": "% Ctrl"}, {"measurement": "% Ctrl @ 10 μM", "setting": "[6]", "result": 91, "unit": "% Ctrl"}, {"measurement": "% Ctrl @ 10 μM", "setting": "[7]", "result": 100, "unit": "% Ctrl"}, {"measurement": "% Ctrl @ 10 μM", "setting": "[8]", "result": 77, "unit": "% Ctrl"}, {"measurement": "% Ctrl @ 10 μM", "setting": "[9]", "result": 100, "unit": "% Ctrl"}, {"measurement": "% Ctrl @ 10 μM", "setting": "[10]", "result": 100, "unit": "% Ctrl"}, {"measurement": "% Ctrl @ 10 μM", "setting": "[11]", "result": 90, "unit": "% Ctrl"}, {"measurement": "% Ctrl @ 10 μM", "setting": "[12]", "result": 97, "unit": "% Ctrl"}, {"measurement": "% Ctrl @ 10 μM", "setting": "[13]", "result": 96, "unit": "% Ctrl"}, {"measurement": "% Ctrl @ 10 μM", "setting": "[14]", "result": 100, "unit": "% Ctrl"}, {"measurement": "% Ctrl @ 10 μM", "setting": "[15]", "result": 74, "unit": "% Ctrl"}, {"measurement": "% Ctrl @ 10 μM", "setting": "[16]", "result": 60, "unit": "% Ctrl"}, {"measurement": "% Ctrl @ 10 μM", "setting": "[17]", "result": 88, "unit": "% Ctrl"}, {"measurement": "% Ctrl @ 10 μM", "setting": "[18]", "result": 56, "unit": "% Ctrl"}, {"measurement": "% Ctrl @ 10 μM", "setting": "[19]", "result": 100, "unit": "% Ctrl"}, {"measurement": "% Ctrl @ 10 μM", "setting": "[20]", "result": 95, "unit": "% Ctrl"}, {"measurement": "% Ctrl @ 10 μM", "setting": "[21]", "result": 85, "unit": "% Ctrl"}, {"measurement": "% Ctrl @ 10 μM", "setting": "[22]", "result": 78, "unit": "% Ctrl"}, {"measurement": "% Ctrl @ 10 μM", "setting": "[23]", "result": 100, "unit": "% Ctrl"}, {"measurement": "% Ctrl @ 10 μM", "setting": "[24]", "result": 93, "unit": "% Ctrl"}, {"measurement": "% Ctrl @ 10 μM", "setting": "[25]", "result": 85, "unit": "% Ctrl"}, {"measurement": "% Ctrl @ 10 μM", "setting": "[26]", "result": 100, "unit": "% Ctrl"}, {"measurement": "% Ctrl @ 10 μM", "setting": "[27]", "result": 98, "unit": "% Ctrl"}, {"measurement": "% Ctrl @ 10 μM", "setting": "[28]", "result": 100, "unit": "% Ctrl"}, {"measurement": "% Ctrl @ 10 μM", "setting": "[29]", "result": 88, "unit": "% Ctrl"}, {"measurement": "% Ctrl @ 10 μM", "setting": "[30]", "result": 90, "unit": "% Ctrl"}, {"measurement": "% Ctrl @ 10 μM", "setting": "[31]; ABL1(F317L)-nonphosphorylated", "result": 100, "unit": "% Ctrl"}, {"measurement": "% Ctrl @ 10 μM", "setting": "[31]; ABL1(F317L)-phosphorylated", "result": 100, "unit": "% Ctrl"}, {"measurement": "% Ctrl @ 10 μM", "setting": "[32]", "result": 100, "unit": "% Ctrl"}]}
